Data taken from ChEMBL document CHEMBL1128660, “Synthesis and fungicidal activity of 2,2-bipyridine derivatives” (1995).

Key:
Format in all cases: functional
[1] = tested on: Botrytis cinerea; experiment: Fungicidal activity (under greenhouse conditions against Cucumber botrytis (Botrytis cinerea) at 200 ppm
[2] = tested on: Blumeria graminis; experiment: Fungicidal activity under greenhouse conditions against Wheat powdery mildew (Erisyphe graminis) at 200 ppm at 200 ppm
[3] = tested on: Phytophthora infestans; experiment: Fungicidal activity under greenhouse conditions against Tomato late blight (Phtyopthora infestans) at 200 ppm
[4] = tested on: Pyricularia grisea; experiment: Fungicidal activity under greenhouse conditions against Rice blast (Pyricularia oryzae) at 200 ppm
[5] = tested on: Oculimacula yallundae; experiment: Fungicidal activity under greenhouse conditions against Wheat foot rot (Pseudocercosporella herpotrichoides) at 200 ppm.
[6] = tested on: Thanatephorus cucumeris; experiment: Fungicidal activity under greenhouse conditions against Rice sheath blight (Rhizoctonia solani) at 200 ppm
[7] = tested on: Blumeria graminis; experiment: The fungicidal activity (percent disease control) under greenhouse conditions against Wheat powdery mildew (Erisyphe graminis) at 200 ppm at 200 ppm; shows curative effect
[8] = tested on: Oculimacula yallundae; experiment: The fungicidal activity (percent disease control) under greenhouse conditions against Wheat foot rot (Pseudocercosporella herpotrichoides) at 40 ppm
[9] = tested on: Puccinia recondita; experiment: Fungicidal activity under greenhouse conditions against Wheat leaf rust (Puccinia recondita) at 200 ppm
[10] = tested on: Parastagonospora nodorum; experiment: The fungicidal activity (percent disease control) under greenhouse conditions against Wheat septoria (Septoria nodorum) at 40 ppm; shows curative effect
[11] = tested on: Parastagonospora nodorum; experiment: The fungicidal activity (percent disease control) under greenhouse conditions against Wheat septoria (Septoria nodorum) at 40 ppm
[12] = tested on: Plasmopara viticola; experiment: The fungicidal activity (percent disease control) under greenhouse conditions against Grape downy mildew (Plasmopara viticola) at 200 ppm
[13] = tested on: Puccinia recondita; experiment: The fungicidal activity (percent disease control) under greenhouse conditions against Wheat leaf rust (Puccinia recondita) at 40 ppm; shows curative effect
[14] = tested on: Parastagonospora nodorum; experiment: The fungicidal activity (percent disease control) under greenhouse conditions against Wheat septoria (Septoria nodorum) at 200 ppm
[15] = tested on: Plasmopara viticola; experiment: The fungicidal activity (percent disease control) under greenhouse conditions against Grape downy mildew (Plasmopara viticola) at 40 ppm
[16] = tested on: Blumeria graminis; experiment: The fungicidal activity (percent disease control) under greenhouse conditions against Wheat powdery mildew (Erisyphe graminis) at 40 ppm; shows curative effect
[17] = tested on: Puccinia recondita; experiment: The fungicidal activity (percent disease control) under greenhouse conditions against Wheat leaf rust (Puccinia recondita) at 40 ppm
[18] = tested on: Puccinia recondita; experiment: The fungicidal activity (percent disease control) under greenhouse conditions against Wheat leaf rust (Puccinia recondita) at 200 ppm; shows curative effect
[19] = tested on: Parastagonospora nodorum; experiment: The fungicidal activity (percent disease control) under greenhouse conditions against Wheat septoria (Septoria nodorum) at 200 ppm; shows curative effect
[20] = tested on: Pyricularia grisea; experiment: The fungicidal activity (percent disease control) under greenhouse conditions against Rice blast (Pyricularia oryzae) at 200 ppm; shows curative effect
[21] = tested on: Botrytis cinerea; experiment: The fungicidal activity (percent disease control) under greenhouse conditions against Cucumber botrytis (Botrytis cinerea) at 40 ppm
[22] = tested on: Blumeria graminis; experiment: The fungicidal activity (percent disease control) under greenhouse conditions against Wheat powdery mildew (Erisyphe graminis) at 40 ppm […]

SMILES | Disease control [1] | Disease control [2] | Disease control [3] | Disease control [4] | Disease control [5] | Disease control [6] | Disease control [7] | Disease control [9] | Disease control [10] | Disease control [14] | other results
CC(C)c1ccnc(-c2cc(C(C)C)ccn2)c1 | 0% | 38% | 0% | 67% | 12% | 73% |  |  |  |  | 
Fc1ccc(-c2ccc(-c3ccccn3)nc2)cc1 | 0% |  | 24% | 32% |  | 100% | 55% | 64% | 32% |  | Disease control [8]: 27%
CCCCc1ccnc(-c2cc(CCCC)ccn2)c1 | 0% | 21% | 0% | 85% | 44% | 93% |  | 33% |  |  | 
Cc1ccnc(-c2cc(-c3ccccc3)ccn2)c1 | 30% | 99% | 0% | 53% | 66% | 81% |  | 99% | 19% |  | 
COc1ccccc1-c1ccnc(-c2ccccn2)c1 | 0% |  | 24% | 32% | 0% | 0% | 93% | 85% |  |  | Disease control [11]: 27%
c1ccc(-c2ccnc(-c3ccccn3)c2)cc1 | 0% |  | 0% | 74% | 0% | 0% | 95% |  | 94% |  | Disease control [12]: 96%; Disease control [13]: 11%
Cc1ccc(-c2ccccn2)nc1 | 0% | 24% | 0% | 0% | 0% | 0% |  | 0% |  | 0% | Disease control [12]: 0%
O=[N+]([O-])c1ccccc1-c1ccnc(-c2ccccn2)c1 | 41% | 0% | 24% | 32% | 0% | 0% |  | 67% | 76% |  | 
Clc1ccc(-c2ccc(-c3ccccn3)nc2)cc1 | 0% |  | 0% | 97% | 81% | 100% | 99% | 65% |  | 98% | Disease control [15]: 50%
CCCCCCCCCCCCc1ccnc(-c2cc(CCCCCCCCCCCC)ccn2)c1 | 0% | 0% | 0% | 0% | 0% | 0% |  |  |  |  | 
COc1ccccc1-c1ccnc(-c2cc(C)ccn2)c1 | 0% |  | 0% | 53% | 86% | 81% |  |  | 12% |  | Disease control [16]: 30%; Disease control [17]: 19%
Cc1ccc(-c2ccc(-c3ccccn3)nc2)cc1 | 59% |  | 0% | 32% | 0% | 0% | 99% |  |  |  | Disease control [18]: 84%; Disease control [19]: 95%
COc1ccc(-c2ccc(-c3ccccn3)nc2)cc1 | 0% | 92% | 0% | 97% | 75% | 19% |  | 93% |  | 40% | Disease control [15]: 65%
c1ccc(-c2ccc(-c3ccccn3)nc2)cc1 | 45% |  | 23% |  | 0% | 0% | 100% |  |  | 100% | Disease control [12]: 96%; Disease control [20]: 87%; Disease control [13]: 60%
CCCCCc1ccnc(-c2cc(CCCCC)ccn2)c1 | 0% | 92% | 0% | 27% | 0% | 93% |  | 90% |  |  | 
O=[N+]([O-])c1ccc(-c2ccc(-c3ccccn3)nc2)cc1 | 0% | 0% | 0% | 0% | 0% | 0% |  | 0% |  | 0% | Disease control [12]: 60%
Brc1ccc(-c2ccc(-c3ccccn3)nc2)cc1 | 0% |  | 0% | 0% | 0% | 0% | 19% | 20% | 58% |  | 
Cc1ccnc(-c2ccc(-c3ccccc3)cn2)c1 |  |  | 0% | 32% | 69% | 0% |  | 93% | 96% |  | Disease control [21]: 28%; Disease control [22]: 47%
c1ccc(OCc2ccc(-c3ccccn3)nc2)cc1 | 0% | 11% | 0% | 0% | 0% | 0% |  | 0% |  | 0% | 
